In ChEMBL document CHEMBL2331461, “Microfluidics assisted synthesis and bioevaluation of sinomenine derivatives as antiinflammatory agents” (Eur J Med Chem, 2013) one finds IC50 and inhibition data, which are given here for 26 compounds.

Test [1] concerns NIH3T3. Put plainly: Cytotoxicity against mouse NIH/3T3 cells assessed as growth inhibition after 24 hrs by MTT assay. The test is classed as cell-based. The conditions noted are these: for pIC50: Mus musculus, NIH3T3, 24 h, read-out: IC50.
For test [2], the target named is Tumor necrosis factor (Homo sapiens) (UniProt P01375). Put plainly: Inhibition of TNFalpha (unknown origin)-induced NF-kappaB activation in mouse NIH/3T3 cells assessed as inhibition of NF-kappaB binding to DNA at 20 uM after 6 hrs by luciferase reporter gene assay. It is filed as cell-based. As to conditions: NIH3T3. On the technique in general: Reporter assays use an easily measured gene product as a stand-in for the process of interest.

In test [3] the test system is Mus musculus. Put plainly: Antiinflammatory activity in ICR mouse assessed as inhibition of lambda-carrageenan-induced paw edema at 10 mg/kg, ip administered 2 hrs prior to carrageenan challenge measured after 2 to 18 hrs. It is filed as functional, organism-based. More on the design: dose 10 mg/kg. (In general: The carrageenan paw model is a standard test of acute inflammation.)

Test [4] deals with Mus musculus. Put plainly: Antiinflammatory activity in ICR mouse assessed as inhibition of lambda-carrageenan-induced paw edema at 15 to 30 mg/kg, ip administered 2 hrs prior to carrageenan challenge measured after 6 to 18 hrs. It is filed as functional, organism-based.

pIC50: −log10 of the molar value. Calls of active or inactive are those of the source. No cut-off for these calls is given here.

Chain of Tumor necrosis factor (Homo sapiens) (P01375 whole entry): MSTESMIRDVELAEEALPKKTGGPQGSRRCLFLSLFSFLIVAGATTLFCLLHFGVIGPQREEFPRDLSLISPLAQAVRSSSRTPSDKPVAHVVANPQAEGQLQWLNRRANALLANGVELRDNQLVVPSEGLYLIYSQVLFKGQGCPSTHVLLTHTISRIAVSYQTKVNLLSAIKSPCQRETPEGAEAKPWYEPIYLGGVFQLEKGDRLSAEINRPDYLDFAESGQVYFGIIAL

Turning to `COC1=C[C@H]2[C@H]3Cc4c(/C=C/C(=O)OCC(C)C)cc(OC)c(O)c4[C@@]2(CCN3C)CC1=O`, the pIC50 in test [1] is less than 4.00.

Regarding `CCOC(=O)/C=C/c1cc(OC)c(O)c2c1C[C@@H]1[C@@H]3C=C(OC)C(=O)C[C@]23CCN1C`, the pIC50 in test [1] is less than 4.00. For the compound `COC(=O)/C(C)=C/c1cc(OC)c(O)c2c1C[C@@H]1[C@@H]3C=C(OC)C(=O)C[C@]23CCN1C`, the pIC50 in test [1] was less than 4.00. With `COC1=C[C@H]2[C@H]3Cc4c(/C=C/C(=O)OC(C)(C)C)cc(OC)c(O)c4[C@@]2(CCN3C)CC1=O`, in test [1], the pIC50 was less than 4.00. Regarding `COCCOC(=O)/C=C/c1cc(OC)c(O)c2c1C[C@@H]1[C@@H]3C=C(OC)C(=O)C[C@]23CCN1C`, the pIC50 in test [1] is less than 4.00. Regarding `COC(=O)[C@H]1C(c2ccc(C)cc2)=NO[C@@H]1c1cc(OC)c(O)c2c1C[C@@H]1[C@@H]3C=C(OC)C(=O)C[C@]23CCN1C`, the pIC50 in test [1] was 4.09. In addition, the inhibition result in test [2] is “Active”. Consider `COC(=O)[C@H]1C(c2cccc(Cl)c2)=NO[C@@H]1c1cc(OC)c(O)c2c1C[C@@H]1[C@@H]3C=C(OC)C(=O)C[C@]23CCN1C`, for which the pIC50 in test [1] is 4.15. Besides, the inhibition result in test [2] was “Active”. As for `COC(=O)[C@H]1C(c2ccc(Br)cc2)=NO[C@@H]1c1cc(OC)c(O)c2c1C[C@@H]1[C@@H]3C=C(OC)C(=O)C[C@]23CCN1C`, the pIC50 in test [1] was 4.25. Also, the inhibition result in test [2] is “Active”. Regarding `CCCCOC(=O)/C=C/c1cc(OC)c(O)c2c1C[C@@H]1[C@@H]3C=C(OC)C(=O)C[C@]23CCN1C`, the pIC50 in test [1] is 4.10. Moreover, in test [2], the inhibition entry was “Active”. Regarding `COC(=O)[C@H]1C(c2ccc(OC)cc2)=NO[C@@H]1c1cc(OC)c(O)c2c1C[C@@H]1[C@@H]3C=C(OC)C(=O)C[C@]23CCN1C`, the pIC50 in test [1] is less than 4.00. Also, the inhibition entry in test [2] was “Active”. On to `COC(=O)[C@H]1C(c2ccccc2)=NO[C@@H]1c1cc(OC)c(O)c2c1C[C@@H]1[C@@H]3C=C(OC)C(=O)C[C@]23CCN1C`, for which, in test [1], the pIC50 is less than 4.00. The inhibition result in test [2] was “Active”.

For `COC(=O)[C@@H]1C(c2cccc(Cl)c2)=NO[C@H]1c1cc(OC)c(O)c2c1C[C@@H]1[C@@H]3C=C(OC)C(=O)C[C@]23CCN1C`, the negative logarithm of the IC50 (pIC50) in test [1] was 4.11. For the same compound, the inhibition result in test [2] is “inactive”. As to `COC(=O)[C@@H]1C(c2ccccc2)=NO[C@H]1c1cc(OC)c(O)c2c1C[C@@H]1[C@@H]3C=C(OC)C(=O)C[C@]23CCN1C`, in test [1], the pIC50 was less than 4.00. Further, in test [2], the inhibition result is “inactive”.

Regarding `COC(=O)[C@@H]1C(c2ccc(Br)cc2)=NO[C@H]1c1cc(OC)c(O)c2c1C[C@@H]1[C@@H]3C=C(OC)C(=O)C[C@]23CCN1C`, the pIC50 in test [1] is 4.27. For the same compound, in test [2], the inhibition result was “inactive”.

In the case of `COC(=O)/C=C/c1cc(OC)c(O)c2c1C[C@@H]1[C@@H]3C=C(OC)C(=O)C[C@]23CCN1C`, the pIC50 in test [1] is less than 4.00. Turning to `COC(=O)[C@@H]1C(c2ccc(Cl)cc2)=NO[C@H]1c1cc(OC)c(O)c2c1C[C@@H]1[C@@H]3C=C(OC)C(=O)C[C@]23CCN1C`, the pIC50 in test [1] is 4.12. In addition, the inhibition entry in test [2] was “inactive”.

On to `CCCCC(CC)COC(=O)/C=C/c1cc(OC)c(O)c2c1C[C@@H]1[C@@H]3C=C(OC)C(=O)C[C@]23CCN1C` (some centres undefined), for which, in test [1], the pIC50 is 5.32. Regarding `COC(=O)[C@@H]1C(c2ccc(OC)cc2)=NO[C@H]1c1cc(OC)c(O)c2c1C[C@@H]1[C@@H]3C=C(OC)C(=O)C[C@]23CCN1C`, the pIC50 in test [1] was 4.08. The inhibition entry in test [2] was “inactive”. In the case of `COC1=C[C@@H]2[C@@H]3Cc4ccc(OC)c(O)c4[C@]2(CCN3C)CC1=O` [SINOMENINE], the pIC50 in test [1] is less than 4.00. Further, the inhibition entry in test [2] was “inactive”. For `COc1ccc2c(c1)c(CC(=O)O)c(C)n2C(=O)c1ccc(Cl)cc1`, the inhibition entry in test [3] was “Active”.

For the compound `COC(=O)[C@@H]1C(c2ccc(C)cc2)=NO[C@H]1c1cc(OC)c(O)c2c1C[C@@H]1[C@@H]3C=C(OC)C(=O)C[C@]23CCN1C`, in test [1], the pIC50 is 4.11. For the same compound, the inhibition entry in test [2] was “Active”. On to `COC(=O)[C@H]1C(c2ccc(Cl)cc2)=NO[C@@H]1c1cc(OC)c(O)c2c1C[C@@H]1[C@@H]3C=C(OC)C(=O)C[C@]23CCN1C`, for which, in test [1], the pIC50 was 4.18. Also, in test [2], the inhibition entry was “Active”. With `COC1=C[C@H]2[C@H]3Cc4c(/C=C/C(=O)OC5CCCCC5)cc(OC)c(O)c4[C@@]2(CCN3C)CC1=O`, in test [1] (nih3t3), the IC50 result was “ND(Insoluble)”. As for `CCCCCCOC(=O)/C=C/c1cc(OC)c(O)c2c1C[C@@H]1[C@@H]3C=C(OC)C(=O)C[C@]23CCN1C`, the negative-log IC50 (pIC50) in test [1] is 4.41. Further, the inhibition entry in test [2] and in test [4] was “Active” in each case.

As to `COC(=O)[C@H]1C(c2cccc(C)c2)=NO[C@@H]1c1cc(OC)c(O)c2c1C[C@@H]1[C@@H]3C=C(OC)C(=O)C[C@]23CCN1C`, the negative-log IC50 (pIC50) in test [1] is less than 4.00. Moreover, the inhibition entry in test [2] was “Active”. On the same counts, the results for `COC(=O)[C@@H]1C(c2cccc(C)c2)=NO[C@H]1c1cc(OC)c(O)c2c1C[C@@H]1[C@@H]3C=C(OC)C(=O)C[C@]23CCN1C` are 4.11 and “Active”.

In general, pIC50 refers to the negative decadic logarithm of the IC50, by convention in mol/L.
